# Experimental data as given in patent US20030017599A1, “Assay for the detection of selectable marker expression in plants” (priority 1999, published 2003).
# Legend:
# Assay type in all cases: in vivo, corn (Zea mays)
# [1] = system: Nontransgenic corn plants (H99); assay: Kanamycin, paromomycin and the combination with and without surfactant; conditions: 20 μL, 5 plants, seven days
# Experimental: Nontransgenic corn plants (H99) were tested at 24 days old using 5 plants for each treatment. Plants were treated with and without surfactant at two different concentrations of paromomycin, kanamycin, and the combination of paromomycin and kanamycin._On the day of application, an antibiotic solutions consisting of 750 mg/L or 1000 mg/L paromomycin and 0.06% (v/v) SILWET L-77 was prepared, as was a control solution consisting of 750 mg/L or 1000 mg/L of paromomycin in water. […] Antibiotic solution (20 μL) was applied to the whorl of each corn plant, from which any standing water has been removed beforehand.
# [2] = system: corn plants containing NPTII protein; assay: Paromomycin as selective agent to identify corn plants containing NPTII protein (predicted); conditions: 10 μL of 1000 mg/L paromomycin and 0.06% (v/v) SILWET L-77; five days
# From the text: Samples of the plants may be taken and analyzed by ELISA for the presence or absence of NPTII protein prior to the start of the field test. […] Negative controls (i.e., nontransgenic plants) may be divided into two equal groups. […] The treated plants may then be scored for the presence or absence of necrosis five days after application of the antibiotic/[…]-77 solution or control solution. […] The field assay scores may then be correlated with the […] results.
# [3] = system: Nontransgenic 3-week-old corn seedlings; assay: Titration of selective agents with cotton rolls tied to the whorl
# Experimental: Nontransgenic 3-week-old corn seedlings were assayed in order to determine the quantity of selective agent necessary in order to obtain a response. […] Cotton rolls were saturated with solutions consisting of 0.03% SILWET L-77 and various concentrations of each of these three antibiotics individually and tied to the whorl of plants to be tested.
# The concentrations of genenticin tested were 25 mg/mL, 50 mg/mL, 75 mg/mL, and 100 mg/mL.
# [4] = 750 mg/L (each antibiotic), with 0.06% SILWET L-77
# [5] = 750 mg/L (each antibiotic), without SILWET L-77
# [6] = 1000 mg/L (each antibiotic), with 0.06% SILWET L-77
# [7] = 1000 mg/L (each antibiotic), without SILWET L-77
compound,measurement,setting,value
NC[C@@H]1O[C@H](O[C@H]2[C@@H](O)[C@H](O[C@@H]3[C@@H](O)[C@H](N)C[C@H](N)[C@H]3O[C@H]3O[C@H](CO)[C@@H](O)[C@H](O)[C@H]3N)O[C@@H]2CO)[C@H](N)[C@@H](O)[C@@H]1O [paromomycin],number of plants with mild symptoms,[1]; [4],0
same,number of plants with no symptoms,[1]; [4],2
same,number of plants with severe necrosis,[1]; [4],3
same,number of plants with mild symptoms,[1]; [5],0
same,number of plants with no symptoms,[1]; [5],5
same,number of plants with severe necrosis,[1]; [5],0
same,number of plants with mild symptoms,[1]; [6],0
same,number of plants with no symptoms,[1]; [6],1
same,number of plants with severe necrosis,[1]; [6],4
same,number of plants with mild symptoms,[1]; [7],0
same,number of plants with no symptoms,[1]; [7],5
same,number of plants with severe necrosis,[1]; [7],0
same,necrosis relative to similarly treated leaves of corn plants that do not contain NPTII protein,[2],reduced or no necrosis
same,bleaching and necrosis in treated plant leaves,"[3]; 300 mg/L, 500 mg/L and 750 mg/L in 0.03% SILWET L-77, two days",Slight to moderate necrosis and some bleaching
same,bleaching and necrosis in treated plant leaves,"[3]; 1000 mg/L in 0.03% SILWET L-77, two days",extreme necrosis and some bleaching
NC[C@H]1O[C@H](O[C@H]2[C@H](O)[C@@H](O[C@H]3O[C@H](CO)[C@@H](O)[C@H](N)[C@H]3O)[C@H](N)C[C@@H]2N)[C@H](O)[C@@H](O)[C@@H]1O [kanamycin],number of plants with mild symptoms,[1]; [4],0
same,number of plants with no symptoms,[1]; [4],0
same,number of plants with severe necrosis,[1]; [4],5
same,number of plants with mild symptoms,[1]; [5],1
same,number of plants with no symptoms,[1]; [5],4
same,number of plants with severe necrosis,[1]; [5],0
same,number of plants with mild symptoms,[1]; [6],2
same,number of plants with no symptoms,[1]; [6],0
same,number of plants with severe necrosis,[1]; [6],3
same,number of plants with mild symptoms,[1]; [7],1
same,number of plants with no symptoms,[1]; [7],4
same,number of plants with severe necrosis,[1]; [7],0
